Results published in publication PMC12062876, “Efficient constitution of a library of rotenoid analogs active against Trypanosoma cruzi from a digitalized plant extract collection” (RSC Advances, 2025).
pIC50: −log10 of the molar value. Like-named read-outs stand apart in the source and are kept apart here.

Assays:
[1] = Cytotoxicity assay: L-6 cells; assay type: cell-based; details: rat skeletal myoblast (L6 cells); means of two independent assays
Procedure: The pure compounds cytotoxicity was assessed against L6 cells as described in ref. [27].

[2] = tested on: T. cruzi amastigotes; assay: Activity against intracellular T. cruzi amastigotes; assay type: cell-based, Trypanosoma cruzi; details: for Selectivity index: SI = IC50 cytotoxicity/IC50 against T. cruzi; for pIC50: Trypanosoma cruzi, read-out: IC50 T. cruzi amastigotes; for activity against T. cruzi (in words): intracellular amastigotes
From the text: The bioactivity of isolated compounds against intracellular T. cruzi amastigotes grown in rat L6 […] is presented in Table 1. […] Rotenone and deguelin are known to be strong mitochondrial complex I (also known as NADH:ubiquinone oxidoreductase) inhibitors,[43–45] while different activities between closely related rotenoids (rotenone, 5′-α-epirotenone, and 5′-β-epirotenone) has already been shown. […] The variation in activity observed on our rapidly generated series of structural analogs points in the same direction. As shown in Fig. 3 and Table 1, the cyclic and bent form of the rotenoid at the B/C ring junction is essential for activity, since compounds 40 and 41 were not active.
The pure compounds activity was assessed against T. cruzi amastigotes as described in ref. [27].

[3] = tested on: T. cruzi amastigotes; details: commercial standards; cited from earlier work
[4] = tested on: L6 cells (rat skeletal myoblast); details: commercial standards; cited from earlier work
[5] = tested on: Haemonchus contortus; details: cited from earlier work
[6] = intracellular amastigotes grown in rat L6 cells, means of two independent assays

Structure (SMILES) | pIC50 [1] | Selectivity index [2] | pIC50 [2, 6] | pIC50 ([2]; L6, in Rattus norvegicus) | IC50 against the amastigote form of the parasite [3] | toxicity to the host cell [4] | nematocidal activity [5] | activity against T. cruzi (in words) [2]
COc1c2c(cc3ccoc13)C(=O)[C@@]1(O)c3cc4c(cc3OC[C@H]1O2)OCO4 (relative stereo) [Compound 29, 12a-hydroxypachyrhizone] | 3.90 | 1.3 | 4.03 |  |  |  |  | 
O=C1c2cc3ccoc3cc2O[C@@H]2COc3cc4c(cc3[C@]12O)OCO4 (relative stereo) [Compound 30, 12a-hydroxydolineone] | 3.85 | 0.7 | 3.71 |  |  |  |  | 
COc1cc2c(cc1OC)[C@]1(O)C(=O)c3cc4ccoc4cc3O[C@@H]1CO2 (relative stereo) [Compound 31, 12a-hydroxyerosone] | 3.95 | 5.7 | 4.70 |  |  |  |  | 
COc1cc2c(cc1OC)[C@@H]1C(=O)c3cc4ccoc4cc3O[C@@H]1CO2 (relative stereo) [Compound 32, erosone] | 3.94 | 2.9 | 4.41 |  |  |  |  | 
COc1cc2c(cc1OC)[C@]1(O)[C@H](OC(C)=O)c3ccc4occc4c3O[C@@H]1CO2 (relative stereo) [Compound 33, 12-deoxo-12α-acetoxy-12a-β-hydroxyelliptone] | 4.01 | 1.5 | 4.19 |  |  |  |  | 
CC(=O)OC1C2c3c(ccc4c3OC(c3ccccc3)CC4=O)OC2OC1(C)C (single isomer, unassigned; (-)) [Compound 11, (−)-purpurin] | 5.20 | 3.5 | 5.75 |  |  |  |  | 
O=C(Cn1ccnc1[N+](=O)[O-])NCc1ccccc1 [Benznidazole, reference compound] |  |  | 5.50 |  |  |  |  | 
COc1cc(O)ccc1[C@@H]1COc2cc(O)c(CC=C(C)C)cc2C1 [Compound 1, 2′-O-methylmanuifolin H] | 4.00 | 3.5 | 4.55 |  |  |  |  | 
CC(C)=CCc1cc2c(cc1O)OCC(c1ccc(O)cc1)C2O (stereo not shown) [Compound 2, bavaisoflavanol] | 4.31 | 1.1 | 4.37 |  |  |  |  | 
CC(C)=CCc1cc2c(cc1O)OC[C@@H](c1ccc(O)cc1O)C2 [Compound 3, manuifolin H] | 3.97 | 3.7 | 4.55 |  |  |  |  | 
COc1cc(O)ccc1C1COc2cc(O)ccc2C1 (stereo not shown) [Compound 4, 7,4′-dihydroxy-2′-methoxyisoflavan] | 3.45 | 1.4 | 3.61 |  |  |  |  | 
COc1cc2c(cc1C1COc3cc(O)ccc3C1)OCO2 (stereo not shown) [Compound 5, astraciceran] | 4.12 | 0.8 | 4.03 |  |  |  |  | 
COc1cc(O)ccc1C1COc2cc3c(cc2C1)CC(C(C)(C)O)O3 (stereo not shown) [Compound 6, 4-(2-(2-hydroxypropan-2-yl)-2,3,6,7-tetrahydro-5H-furo[3,2-g]chromen-6-yl)-3-methoxyphenol] | 3.81 | 0.8 | 3.69 |  |  |  |  | 
CC(C)=CCc1c(O)ccc(C(=O)/C=C/c2ccc(O)cc2)c1O [Compound 7, isobavachalcone] | 3.98 | 1.7 | 4.22 |  |  |  |  | 
COc1c(C(=O)/C=C(\O)c2ccccc2)ccc2occc12 [Compound 8, pongamol] | 4.13 | 2.7 | 4.57 |  |  |  |  | 
C=C(C)/C=C/c1c(OC)ccc2c1OC(c1ccccc1)CC2=O (stereo not shown) [Compound 9, dehydroisoderricin] | 4.02 | 1.4 | 4.18 |  |  |  |  | 
O=c1cc(-c2ccccc2)oc2c1ccc1occc12 [Compound 10, lanceolatin B] | 3.89 | 13.6 |  | 5.02 |  |  |  | 
CC(=O)OC(C1COc2ccc3c(c21)OC(c1ccc(O)cc1)CC3=O)C(C)(C)O (stereo not shown) [Compound 12, 2-hydroxy-1-(2-(4-hydroxyphenyl)-4-oxo-3,4,8,9-tetrahydro-2H-furo[2,3-h]chromen-9-yl)-2-methylpropyl acetate] | 4.00 | 1.7 | 4.23 |  |  |  |  | 
CC(=O)OC(C1COc2ccc3c(c21)OC(c1ccccc1)CC3=O)C(C)(C)O (stereo not shown) [Compound 13, 2-hydroxy-2-methyl-1-(4-oxo-2-phenyl-3,4,8,9-tetrahydro-2H-furo[2,3-h]chromen-9-yl)propyl acetate] | 3.88 | 1.1 | 3.91 |  |  |  |  | 
CC(C)(O)C(OC(=O)C=Cc1ccccc1)C1COc2ccc3c(c21)OC(c1ccccc1)CC3=O (stereo not shown) [Compound 14, 2-hydroxy-2-methyl-1-(4-oxo-2-phenyl-3,4,8,9-tetrahydro-2H-furo[2,3-h]chromen-9-yl)propyl cinnamate] | 4.09 | 5.1 | 4.80 |  |  |  |  | 
Oc1ccc2c(c1)OC[C@H]1c3cc4c(cc3O[C@@H]21)OCO4 [Compound 16, maackiain] | 3.81 | 1.3 | 3.92 |  |  |  |  | 

Structure (SMILES) | pIC50 [1] | Selectivity index [2] | pIC50 [2, 6] | pIC50 ([2]; L6, in Rattus norvegicus) | IC50 against the amastigote form of the parasite [3] | toxicity to the host cell [4] | nematocidal activity [5] | activity against T. cruzi (in words) [2]
C=C(C)[C@H]1Cc2cc3c(cc2O1)OC[C@H]1c2cc4c(cc2O[C@@H]31)OCO4 [Compound 17, emoroidocarpan] | 4.07 | 1.8 | 4.32 |  |  |  |  | 
C=C(CO)C1Cc2cc3c(cc2O1)OCC1c2cc4c(cc2OC31)OCO4 (stereo not drawn) [Compound 18, (2′R)-4′-hydroxyemoroidocarpan] | 3.93 | 2.9 | 4.40 |  |  |  |  | 
C=C(C)[C@H]1Cc2cc3c(cc2O1)oc(=O)c1c2cc4c(cc2oc31)OCO4 [Compound 19, tephcalostan] | 3.93 | 1.8 | 4.18 |  |  |  |  | 
CC1(C)C=Cc2c(ccc(-c3coc4cc(O)ccc4c3=O)c2O)O1 [Compound 20, glabrone] | 3.73 | 1.2 | 3.83 |  |  |  |  | 
CC1(C)C=Cc2c(ccc(-c3coc4cc(O)c(O)cc4c3=O)c2O)O1 [Compound 21, 5′,6,7-trihydroxy-2′,2′-dimethyl-2′H,4H-[3,6′-bichromen]-4-one] | 4.12 | 1.4 | 4.25 |  |  |  |  | 
COc1ccc(-c2coc3cc(O)ccc3c2=O)cc1 [Compound 22, formononetin] | 3.65 | 1.0 | 3.66 |  |  |  |  | 
COc1c(-c2coc3cc4c(cc3c2=O)C=CC(C)(C)O4)ccc2c1C=CC(C)(C)O2 [Compound 23, munetone] | 4.41 | 5.3 | 5.13 |  |  |  |  | 
COc1cc2occ(-c3ccc4c(c3)OCO4)c(=O)c2cc1O [Compound 24, acicerone] | 3.73 | 2.1 | 4.06 |  |  |  |  | 
COc1ccc(-c2coc3cc(OC)c(O)cc3c2=O)cc1 [Compound 25, alfalone] | 3.58 | 1.1 | 3.62 |  |  |  |  | 
CC(C)=CCc1c(O)cc2occ(-c3ccc(O)cc3)c(=O)c2c1O [Compound 27, wighteone] | 3.98 | 2.2 | 4.33 |  |  |  |  | 
COc1cc2c(cc1-c1coc3cc4occc4cc3c1=O)OCO2 [Compound 28, dehydroneotenone] | 4.74 | 5.1 | 5.44 |  |  |  |  | 
COc1cc2c(cc1OC)C1C(CO2)Oc2c(ccc3occc23)C1OC(C)=O (stereo not drawn) [Compound 34, 12-deoxo-12α-acetoxyelliptone] | 3.98 | 3.8 | 4.57 |  |  |  |  | 
COc1cc2c(cc1OC)[C@@H]1C(=O)c3ccc4occc4c3O[C@@H]1CO2 [Compound 35, elliptone] | 4.00 | 5.4 | 4.74 |  |  |  |  | 
COc1cc2c(cc1OC)[C@]1(O)C(=O)c3ccc4occc4c3O[C@@H]1CO2 [Compound 36, 12a-hydroxyelliptone] | 4.00 | 18.5 | 5.27 |  |  |  |  | 
C=C(C)[C@H]1Cc2c(ccc3c2O[C@@H]2COc4cc(OC)c(OC)cc4[C@@H]2C3=O)O1 [Compound 37, rotenone] | 6.32 | 51.7 |  | 8.00 | nanomolar | without toxicity | potent nematocidal activity | 
COc1cc2c(cc1OC)[C@]1(O)C(=O)c3ccc4c(c3O[C@@H]1CO2)C=CC(C)(C)O4 [Compound 38, tephrosin] | 4.14 | 1937.0 |  | 7.40 |  |  |  | 
COc1cc2c(cc1OC)[C@@H]1C(=O)c3ccc4c(c3O[C@@H]1CO2)C=CC(C)(C)O4 [Compound 39, deguelin] | 4.71 | 1148.5 | 7.70 |  | nanomolar | without toxicity | potent nematocidal activity | 
CC1(C)C=Cc2c(ccc3c(=O)c(-c4cc(O)c5c(c4)OCO5)coc23)O1 [Compound 40, norisojamaicin] | 3.91 | 5.7 | 4.66 |  |  |  |  | not active
COc1ccc(-c2coc3c4c(cc(O)c3c2=O)OC(C)(C)C=C4)cc1O [Compound 41, 3′-hydroxy-4′-O-metyhlerrone] | 4.25 | 6.9 | 5.09 |  |  |  |  | not active
COc1cc([C@@H]2c3cc4c(cc3[C@H](O)[C@H]3COC(=O)[C@H]23)OCO4)cc(OC)c1OC [Podophyllotoxin, reference compound] | 7.70 |  |  |  |  |  |  | 
